Experiments:
COPD patients [1] = test: Rescue medication (levalbuterol MDI) use in 2-week clinical trial; assay type: in vivo, human
Experimental: (§1) This was a 2-week, prospective, multi-center (34 sites), randomized, modified blind, double dummy, parallel group study designed to evaluate the efficacy and safety of the combination of arformoterol 15 μg BID and tiotropium 18 μg QD (dosed sequentially) versus the individual mono-therapies in the treatment of COPD patients. The study was conducted according to the principles established by the Declaration of Helsinki (see, e.g., World Medical Association Declaration of Helsinki. Recommendations guiding physicians in biomedical research involving human subjects. JAMA 1997; 277:925-926.). Appropriate Institutional Review boards approved the protocol and written informed consent was obtained from the patients.
During the study period, the use of LABAs or long-or short-acting anticholinergic bronchodilators (except for the study medication) was prohibited. Use of oral and inhaled corticosteroids was allowed as long as patients were on a stable dosing regimen for at least 14 days prior to study entry that was maintained throughout the study. Patients were required to withhold oral corticosteroids for at least 24 hours prior to pulmonary function testing. Leukotriene modifiers and methylxanthines were not allowed for at least 7-days prior to study entry. Levalbuterol MDI (Xopenex® Sepracor Inc., Marlborough, Mass.) was supplied and used as-needed for rescue medications for acute bronchospasm and acute treatment of COPD symptoms throughout the trial. Patients were instructed to withhold the use of rescue medication for ≧6 hours prior to each clinic visit.
At the screening visit, baseline values were obtained for COPD symptoms, Modified Medical Research Council (MMRC) Dyspnea Scale, heart rate, vital signs, and pulmonary function tests. Medical event calendars and medication logs that were to be completed daily, and rescue medication were also dispensed. The medication logs were used to assess compliance by monitoring the number of UDV/DPI doses taken.
(§2) Eligible patients were randomized to receive one of three treatments for 14 days: nebulized arformoterol 15 μg (Brovana®, Sepracor Inc., Marlborough, Mass.) BID and placebo DPI QD, nebulized placebo BID and tiotropium 18 μg (Spriva® HandiHaler® Boehringer Ingelheim, Ridgefield, Conn.) DPI QD, or nebulized arformoterol 15 μg BID and tiotropium 18 μg DPI QD. The nebulized drug was administered first using the PARI LC Plus® nebulizer driven by the Duraneb 3000® compressor (Pari: Pari Respiratory Equipment Inc., Midlothian, Va.) at a flow rate of 3.3 L/minute followed (within 5 minutes) by the DPI administration (HandiHaler®). The tiotropium and placebo DPI capsules were identical in size and shape but differed in color.

COPD patients [2] = test: Spirometry (FEV1, FVC) in 2-week randomized, double dummy, parallel group clinical trial; assay type: in vivo, human; conditions: for Difference between combined therapy and mono-therapies in change in FEV1AUC0-24, LS mean / Difference between combined therapy and mono-therapies in change in trough FEV1, LS mean / Difference between combined therapy and mono-therapies in peak change in FEV1 over 12 hours, LS mean / Difference between combined therapy and mono-therapies in peak change in FVC over 12 hours, LS mean / Change in trough FEV1, mean (SD) / Difference between combined therapy and mono-therapies in trough FEV1, LS mean: week 2; for Change in trough FEV1, mean (SD): trough = 24 hour time point after morning dose; for mean improvement in peak FVC: from baseline after 2 weeks of treatment
Experimental: as §1
All patients had non-asthmatic COPD (including emphysema and/or chronic bronchitis). […] They also were required to have a pre-bronchodilator baseline pulmonary function of FEV1>0.7 L, FEV1/FVC ratio of ≦70%, and FEV1≦65% predicted. Patients were excluded if they had life-threatening or unstable respiratory status within 30 days of the screening visit. Patients who changed their prescribed dose or type of COPD medication within 14 days prior to screening or who had ever used tiotropium bromide inhalation powder were excluded.
as §2
At week 0 and week 2, medical event calendars and blood samples were collected and vital signs and heart measurements analyzed. At week 0, spirometry was performed pre-morning dose, immediately (within 5 minutes) and at 30 minutes, 1, 2, 4, 6, 8, 10, and 12 hours post-first dose. After the 12-hour pulmonary function test patients self-administered the evening dose of study medication. At week 2, serial spirometry was also performed as at week 0, as well as immediately (within 5 minutes) following the evening dose (administered 12 hours after the morning dose) and 12.5, 13, 14, 16, 23, and 24 hours post-morning dose. Inspiratory capacity was evaluated pre-dose and at 2 hours post-morning dose at week 0, and pre-dose and 2, 11, 14, and 24 hours post-morning dose at week 2. All inspiratory capacity measurements were the mean of acceptable inspiratory capacity maneuvers, two of which were reproducible. Prior to an inspiratory capacity maneuver a patient had to have a stable expiratory level for about 10 breaths. Once the stable level was achieved, at the end of exhalation of a normal breath the patient was asked to make a steady and full inhalation at normal inspiratory flow rates until the lungs were completely full, and then to exhale at a normal rate.
All pulmonary function values used were the highest among the three acceptable maneuvers. The Investigator ensured that all spirometry was performed in accordance with the American Thoracic Society/European Respiratory Society Standardisation of Spirometry guidelines (see, e.g., Miller M R, Hankinson J, Brusasco V, Burgos F, Casaburi R, Coates A, et al. Standardisation of spirometry. Eur Respir J 2005; 26:319-338; herein incorporated in its entirety by reference). Centralized over-reading of spirometry and inspiratory capacity pulmonary function measures were used for quality control.

[3] = <50% percent predicted FEV1, changes in levalbuterol MDI use at week 2
[4] = ITT, week 2, change from baseline, levalbuterol rescue
[5] = ≧50% percent predicted FEV1, changes in levalbuterol MDI use at week 2
[6] = ITT, change from baseline at week 2
[7] = ITT, change from baseline at week 2, time normalized
[8] = ITT, combined therapy versus the mono-therapy
[9] = baseline percent predicted FEV1 <50%, combined versus the mono-therapy
[10] = baseline percent predicted FEV1 <50%, week 2 from study baseline
[11] = baseline percent predicted FEV1 <50%, week 2 from study baseline (pre-dose week 0)
[12] = baseline percent predicted FEV1 ≧50%, combined versus the mono-therapy
[13] = baseline percent predicted FEV1 ≧50%, week 2 from study baseline
[14] = baseline percent predicted FEV1 ≧50%, week 2 from study baseline (pre-dose week 0)

Compound	Number of actuations per day, mean (SD) (COPD patients [1]; [3])	Used levalbuterol, n (%) (COPD patients [1]; [3])	Used levalbuterol, n (%) (COPD patients [1]; ITT, week 2)	Number of actuations per day, mean (SD) (COPD patients [1]; [4])	Number of days per week, mean (SD) (COPD patients [1]; [4])	Number of actuations per day, mean (SD) (COPD patients [1]; [5])	Used levalbuterol, n (%) (COPD patients [1]; [5])	Peak Change in FEV1 over 12 hours, mean (SD) (COPD patients [2]; [6])	Peak change in FVC over 12 hours, mean (SD) (COPD patients [2]; [6])	Change in FEV1AUC0-24, mean (SD) (COPD patients [2]; [7])	Difference between combined therapy and mono-therapies in change in FEV1AUC0-24, LS mean (COPD patients [2]; [8]) [L]	Difference between combined therapy and mono-therapies in change in trough FEV1, LS mean (COPD patients [2]; [8]) [L]	Difference between combined therapy and mono-therapies in peak change in FEV1 over 12 hours, LS mean (COPD patients [2]; [8]) [L]	Difference between combined therapy and mono-therapies in peak change in FVC over 12 hours, LS mean (COPD patients [2]; [8]) [L]	Change in trough FEV1, mean (SD) (COPD patients [2]; ITT)	Difference between combined therapy and mono-therapies in change in FEV1AUC0-24, LS mean (COPD patients [2]; [9]) [L]	Difference between combined therapy and mono-therapies in peak change in FEV1 over 12 hours, LS mean (COPD patients [2]; [9]) [L]	Difference between combined therapy and mono-therapies in peak change in FVC over 12 hours, LS mean (COPD patients [2]; [9]) [L]	Difference between combined therapy and mono-therapies in trough FEV1, LS mean (COPD patients [2]; [9]) [L]	Peak Change in FEV1 over 12 hours, mean (SD) (COPD patients [2]; [10])	further results
COc1ccc(C[C@@H](C)NC[C@H](O)c2ccc(O)c(NC=O)c2)cc1 [Arformoterol]	−2.1 (2.3) actuations per day	45 (95.7) n (%)	40 (52.6) n (%)	−1.8 (2.2) actuations per day	−2.1 (2.6) days per week	−1.3 (2.0) actuations per day	26 (90)^ n (%)	0.27 (0.21) L	0.48 (0.37) L	0.10 (0.21) L	0.12	0.07	0.11	0.12	0.09 (0.23) L	0.11	0.11	0.15	0.08	0.31 (0.23) L	mean FEV1 improvement 2-hours after the evening dose (COPD patients [2]; 2 hours after evening dose): ~182 mL; mean FEV1 improvement 2-hours after the morning dose (COPD patients [2]; 2 hours after morning dose): approximately 213 mL; Peak change in FVC over 12 hours, mean (SD) (COPD patients [2]; [10]): 0.56 (0.41) L; Trough FEV1 (change in FEV1 at 24 hours post-dose), mean (SD) (COPD patients [2]; [10]): 0.13 (0.23) L; Change in FEV1AUC0-24, mean (SD) (COPD patients [2]; [11]): 0.15 (0.22) L; Difference between combined therapy and mono-therapies in change in FEV1AUC0-24, LS mean (COPD patients [2]; [12]): 0.14 L; Difference between combined therapy and mono-therapies in peak change in FEV1 over 12 hours, LS mean (COPD patients [2]; [12]): 0.10 L; Difference between combined therapy and mono-therapies in peak change in FVC over 12 hours, LS mean (COPD patients [2]; [12]): 0.08 L; Difference between combined therapy and mono-therapies in trough FEV1, LS mean (COPD patients [2]; [12]): 0.05 L; Peak Change in FEV1 over 12 hours, mean (SD) (COPD patients [2]; [13]): 0.22 (0.17) L; Peak change in FVC over 12 hours, mean (SD) (COPD patients [2]; [13]): 0.34 (0.25) L; Trough FEV1 (change in FEV1 at 24 hours post-dose), mean (SD) (COPD patients [2]; [13]): 0.02 (0.21) L; Change in FEV1AUC0-24, mean (SD) (COPD patients [2]; [14]): 0.03 (0.19) L; mean improvement in peak FVC (COPD patients [2]): 48 mL; LS mean (±SE) peak improvement in FEV1 from visit pre-dose (COPD patients [2]): 0.19 L
C[N+]1(C)[C@@H]2C[C@@H](OC(=O)C(O)(c3cccs3)c3cccs3)C[C@H]1[C@@H]1O[C@@H]12 [Tiotropium]	−1.8 (3.3) actuations per day	48 (94.1) n (%)	38 (47.5) n (%)	−1.8 (2.8) actuations per day	−2.2 (2.7) days per week	−1.9 (1.8) actuations per day	27 (96.4) n (%)	0.27 (0.23) L	0.40 (0.34) L	0.08 (0.20) L	0.14	0.07	0.11	0.20	0.08 (0.21) L	0.16	0.14	0.28	0.10	0.29 (0.26) L	Peak change in FVC over 12 hours, mean (SD) (COPD patients [2]; [10]): 0.43 (0.37) L; Trough FEV1 (change in FEV1 at 24 hours post-dose), mean (SD) (COPD patients [2]; [10]): 0.11 (0.22) L; Change in FEV1AUC0-24, mean (SD) (COPD patients [2]; [11]): 0.10 (0.22) L; Difference between combined therapy and mono-therapies in change in FEV1AUC0-24, LS mean (COPD patients [2]; [12]): 0.12 L; Difference between combined therapy and mono-therapies in peak change in FEV1 over 12 hours, LS mean (COPD patients [2]; [12]): 0.09 L; Difference between combined therapy and mono-therapies in peak change in FVC over 12 hours, LS mean (COPD patients [2]; [12]): 0.08 L; Difference between combined therapy and mono-therapies in trough FEV1, LS mean (COPD patients [2]; [12]): 0.04 L; Peak Change in FEV1 over 12 hours, mean (SD) (COPD patients [2]; [13]): 0.23 (0.16) L; Peak change in FVC over 12 hours, mean (SD) (COPD patients [2]; [13]): 0.34 (0.28) L; Trough FEV1 (change in FEV1 at 24 hours post-dose), mean (SD) (COPD patients [2]; [13]): 0.03 (0.17) L; Change in FEV1AUC0-24, mean (SD) (COPD patients [2]; [14]): 0.05 (0.14) L; mean improvement in peak FVC (COPD patients [2]): 40 mL; LS mean (±SE) peak improvement in FEV1 from visit pre-dose (COPD patients [2]): 0.19 L

Reference: patent publication US20140336218A1, “ARFORMOTEROL AND TIOTROPIUM COMPOSITIONS AND METHODS FOR USE” (priority 2008, published 2014)
